According to patent EP4775589A1, “PHARMACEUTICAL COMPOSITION COMPRISING A PEPTIDE OR A COMBINATION OF PEPTIDES AGONISTIC TO THE MAS, AT1 AND AT2 RECEPTORS” (Pontificia Universidad Católica de Chile, priority 2023, dated 2025):
pEC50: −log10 of the molar value. Where a SMILES comes first, the peptide text is derived from it. [ ]: non-standard residue; d: D form.

Tested on: aortic rings pre-contracted with phenylephrine
Parameters: species or system Wistar Kyoto rats
Procedure: Ten-week-old male Wistar Kyoto rats were anesthetized with ketamine (35 mg/kg) and xylazine (7 mg/kg) administered intraperitoneally. The aortas were removed, dissected from the extravascular connective tissue, and cut into 3 mm long rings in fresh Krebs buffer pH 7.4 (KRB, 120 mM NaCl, 25 mM NaHCO3, 5 mM glucose, 4.8 mM KCI, 2.5 mM CaCl2, 1.2 mM MgSO4, […], and 1.2 mM KH2PO4) freshly bubbled with 5% CO2 in air. They were then mounted on a wire myograph (DMT 620M) and placed in an organ bath with KRB, pH 7.4 at 37°C with constant bubbling and equilibrated for 30 min at a tension of 1.5 g. The vasodilator response of ^DH^DF^DP^DH^DI^DY^DV^DR^DD^LD^LR^LV^LY^LI^LH^LP (SEQ ID NO: 1), which corresponds to a fusion of the angiotensin-(1-9) retro-enantio peptide (D-amino acids, N-terminal to C-terminal direction: ^DH^DF^DP^DH^DI^DY^DV^DR^DD (SEQ ID NO: 2)) and the angiotensin-(1-7) peptide (L-amino acids, N-terminal to C-terminal direction: ^LD^LR^LV^LY^LI^LH^LP (SEQ ID NO: 3) were evaluated in dose-response curves [10^-18 to 10^-4 M] to these molecules in baths with aortic rings pre-contracted with phenylephrine 10^-7 M. Carbacol (10^-6-10^-4 M) was used as a relaxation control. The peptides were added in cumulative concentrations to the baths when the vasoconstrictor response to phenylephrine reached its maximum level. […]

| Structure (SMILES) | pEC50 |
| --- | --- |
| CC[C@@H](C)[C@@H](NC(=O)[C@@H](Cc1c[nH]cn1)NC(=O)[C@H]1CCCN1C(=O)[C@@H](Cc1ccccc1)NC(=O)[C@H](N)Cc1c[nH]cn1)C(=O)N[C@H](Cc1ccc(O)cc1)C(=O)N[C@@H](C(=O)N[C@H](CCCNC(=N)N)C(=O)N[C@H](CC(=O)O)C(=O)N[C@@H](CC(=O)O)C(=O)N[C@@H](CCCNC(=N)N)C(=O)N[C@H](C(=O)N[C@@H](Cc1ccc(O)cc1)C(=O)N[C@H](C(=O)N[C@@H](Cc1c[nH]cn1)C(=O)N1CCC[C@H]1C(=O)O)[C@@H](C)CC)C(C)C)C(C)C [HP16, ^DH^DF^DP^DH^DI^DY^DV^DR^DD^LD^LR^LV^LY^LI^LH^LP] | 11.29 |
| CC[C@@H](C)[C@@H](NC(=O)[C@@H](Cc1c[nH]cn1)NC(=O)[C@H]1CCCN1C(=O)[C@@H](Cc1ccccc1)NC(=O)[C@H](N)Cc1c[nH]cn1)C(=O)N[C@H](Cc1ccc(O)cc1)C(=O)N[C@@H](C(=O)N[C@H](CCCNC(=N)N)C(=O)N[C@H](CC(=O)O)C(=O)O)C(C)C [RI-Ang-(1-9), ^DH^DF^DP^DH^DI^DY^DV^DR^DD] (H-[dH][dF][dP][dH][dI][dY][dV][dR][dD]-OH) | 10.12 |
